Data reported in patent publication US20250002487A1, “HETEROCYCLIC COMPOUNDS AND USES THEREOF” (Ventus Therapeutics U.S., Inc., priority 2021, published 2025).

Biological target: human-cGAS (h-cGAS) (Homo sapiens, UniProt Q8N884)
Experiment: hcGAS Kinase-Glo Assay
Assay type: biochemical
Details: 40 nM h-cGAS, 100 μM ATP, 100 μM GTP, 25 nM dsDNA, 3 h incubation, read-out: hcGAS potency IC50
Summary of the method: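 IC50 values come from a luminescence-based Kinase-Glo measurement on human cGAS. Conditions follow the Lama et al. 2019 method with minor modifications.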

human-cGAS (h-cGAS), sequence (Q8N884 whole entry): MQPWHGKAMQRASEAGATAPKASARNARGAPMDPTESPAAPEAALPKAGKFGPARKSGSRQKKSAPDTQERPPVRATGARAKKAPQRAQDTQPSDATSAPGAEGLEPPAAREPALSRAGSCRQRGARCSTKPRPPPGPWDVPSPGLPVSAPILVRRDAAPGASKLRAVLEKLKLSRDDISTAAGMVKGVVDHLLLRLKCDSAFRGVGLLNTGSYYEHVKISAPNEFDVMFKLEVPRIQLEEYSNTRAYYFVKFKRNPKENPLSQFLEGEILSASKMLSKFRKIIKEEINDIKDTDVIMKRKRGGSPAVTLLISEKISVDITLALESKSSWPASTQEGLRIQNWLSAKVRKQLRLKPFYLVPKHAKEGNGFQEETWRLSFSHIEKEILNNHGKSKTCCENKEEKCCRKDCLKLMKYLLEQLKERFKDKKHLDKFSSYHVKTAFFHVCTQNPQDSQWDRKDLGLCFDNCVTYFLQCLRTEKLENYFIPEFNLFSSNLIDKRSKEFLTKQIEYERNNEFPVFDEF

Row | SMILES | IC50
1 | CSc1nnc(NC(=O)c2noc(N3CCC(C)(C)CC3)n2)s1 [Compound 102, 5-(4,4-dimethylpiperidin-1-yl)-N-(5-(methylthio)-1,3,4-thiadiazol-2-yl)-1,2,4-oxadiazole-3-carboxamide] | ≥ 1 µM
2 | CNC(=O)c1ccc2c(C(=O)Nc3nnc(SC)s3)onc2c1 [Compound 193, N6-methyl-N3-(5-(methylthio)-1,3,4-thiadiazol-2-yl)benzo[c]isoxazole-3,6-dicarboxamide] | ≥ 1 µM
3 | CSc1nnc(NC(=O)c2cc(-c3cccc(C#N)c3)no2)s1 [Compound 214, 3-(3-cyanophenyl)-N-[5-(methylsulfanyl)-1,3,4-thiadiazol-2-yl]-1,2-oxazole-5-carboxamide] | ≥ 1 µM
4 | CSc1nnc(NC(=O)c2cncc(-c3ccccn3)c2)s1 [Compound 72, N-(5-(methylthio)-1,3,4-thiadiazol-2-yl)-[2,3′-bipyridine]-5′-carboxamide] | ≥ 1 µM
5 | CSc1nnc(NC(=O)c2nc(Cc3ccccc3)no2)s1 [Compound 261, 3-benzyl-N-(5-methylsulfanyl-1,3,4-thiadiazol-2-yl)-1,2,4-oxadiazole-5-carboxamide] | 0.5 to 1 µM
6 | CSc1nnc(NC(=O)c2onc3ccc(Cc4ccc(O)cc4)cc23)s1 [Compound 188, 5-(4-hydroxybenzyl)-N-(5-(methylthio)-1,3,4-thiadiazol-2-yl)benzo[c]isoxazole-3-carboxamide] | 0.5 to 1 µM
7 | CSc1nnc(NC(=O)c2cc(O)cc(-c3ccccc3)n2)s1 [Compound 200, 4-hydroxy-N-(5-(methylthio)-1,3,4-thiadiazol-2-yl)-6-phenylpicolinamide] | ≥ 1 µM
8 | CSc1nnc(NC(=O)c2cc(C3CCCC3)no2)s1 [Compound 85, 3-cyclopentyl-N-(5-(methylthio)-1,3,4-thiadiazol-2-yl)isoxazole-5-carboxamide] | 0.5 to 1 µM
9 | CSc1nnc(NC(=O)c2noc(N3CCCC3c3ccccc3)n2)s1 (stereo not drawn) [Compound 99, N-(5-(methylthio)-1,3,4-thiadiazol-2-yl)-5-(2-phenylpyrrolidin-1-yl)-1,2,4-oxadiazole-3-carboxamide] | ≥ 1 µM
10 | CSc1nnc(NC(=O)c2nnc(N3CCCC(C(=O)O)C3)o2)s1 (stereo not drawn) [Compound 110, 1-(5-{[5-(methylsulfanyl)-1,3,4-thiadiazol-2-yl]carbamoyl}-1,3,4-oxadiazol-2-yl)piperidine-3-carboxylic acid] | 0.5 to 1 µM
11 | O=C(Nc1nnc(-c2ccccc2Cl)s1)c1c[nH]nn1 [Compound 59, N-(5-(2-chlorophenyl)-1,3,4-thiadiazol-2-yl)-1H-1,2,3-triazole-4-carboxamide] | 0.5 to 1 µM
12 | CSc1nnc(NC(=O)c2onc3c2CCCC3=O)s1 [Compound 195, N-(5-(methylthio)-1,3,4-thiadiazol-2-yl)-7-oxo-4,5,6,7-tetrahydrobenzo[c]isoxazole-3-carboxamide] | ≥ 1 µM
13 | CSc1nnc(NC(=O)c2onc3c2CCCC3O)s1 (stereo not drawn) [Compound 196, 7-Hydroxy-N-(5-(methylthio)-1,3,4-thiadiazol-2-yl)-4,5,6,7-tetrahydrobenzo[c]isoxazole-3-carboxamide] | ≥ 1 µM
14 | CSc1nnc(NC(=O)c2onc3c2CCc2cccnc2-3)s1 [Compound 173, N-(5-(Methylthio)-1,3,4-thiadiazol-2-yl)-4,5-dihydroisoxazolo[4,3-h]quinoline-3-carboxamide] | 0.5 to 1 µM
15 | CSc1nnc(NC(=O)c2onc3ccc(Cn4cc(C(=O)O)c(=O)c5ccccc54)cc23)s1 [Compound 184, 1-((3-((5-(Methylthio)-1,3,4-thiadiazol-2-yl)carbamoyl)benzo[c]isoxazol-5-yl)methyl)-4-oxo-1,4-dihydroquinoline-3-carboxylic acid] | ≥ 1 µM
16 | CSc1nnc(NC(=O)c2onc3cc(CO)ccc23)s1 [Compound 194, 6-(hydroxymethyl)-N-(5-(methylthio)-1,3,4-thiadiazol-2-yl)benzo[c]isoxazole-3-carboxamide] | 0.5 to 1 µM
17 | CSc1nnc(NC(=O)c2nnn(Cc3ccccn3)n2)s1 [Compound 133, N-[5-(methylthio)-1,3,4-thiadiazol-2-yl]-2-(pyridin-2-ylmethyl)-1,2,3,4-tetrazole-5-carboxamide] | ≥ 1 µM

Further lines, results first:

Row | IC50 | SMILES
18 | 0.1 to 0.5 µM | CSc1nnc(NC(=O)c2cc(-c3ccc(F)cc3)cc(=O)o2)s1 [Compound 239, 4-(4-fluorophenyl)-N-(5-methylsulfanyl-1,3,4-thiadiazol-2-yl)-6-oxo-pyran-2-carboxamide]
19 | 0.1 to 0.5 µM | CSc1nnc(NC(=O)c2cc(-c3cccc(=O)[nH]3)cc(=O)o2)s1 [Compound 276, N-(5-(methylthio)-1,3,4-thiadiazol-2-yl)-2-oxo-4-(6-oxo-1,6-dihydropyridin-2-yl)-2H-pyran-6-carboxamide]
20 | 0.5 to 1 µM | COC(=O)c1cc(C(=O)Nc2nnc(SC)s2)on1 [Compound 15, methyl 5-((5-(methylthio)-1,3,4-thiadiazol-2-yl)carbamoyl)isoxazole-3-carboxylate]
21 | 0.5 to 1 µM | CSc1nnc(NC(=O)c2onc3c(CO)cccc23)s1 [Compound 168, 7-(hydroxymethyl)-N-(5-(methylthio)-1,3,4-thiadiazol-2-yl)benzo[c]isoxazole-3-carboxamide]
22 | 0.5 to 1 µM | CSc1nnc(NC(=O)c2cc(-c3ccc(Cl)s3)on2)s1 [Compound 95, 5-(5-chlorothiophen-2-yl)-N-(5-(methylthio)-1,3,4-thiadiazol-2-yl)isoxazole-3-carboxamide]
23 | 0.5 to 1 µM | CSc1nnc(NC(=O)c2noc(N3CCCCC3c3ccccc3)n2)s1 (stereo not drawn) [Compound 103, N-(5-(methylthio)-1,3,4-thiadiazol-2-yl)-5-(2-phenylpiperidin-1-yl)-1,2,4-oxadiazole-3-carboxamide]
24 | 0.1 to 0.5 µM | CSc1nnc(NC(=O)c2cc(-c3ccccc3Cl)cc(=O)o2)s1 [Compound 251, 4-(2-chlorophenyl)-N-(5-methylsulfanyl-1,3,4-thiadiazol-2-yl)-6-oxo-pyran-2-carboxamide]
25 | 0.5 to 1 µM | Cc1ccccc1-c1nnc(NC(=O)c2onc3ccccc23)s1 [Compound 27, N-(5-(o-tolyl)-1,3,4-thiadiazol-2-yl)benzo[c]isoxazole-3-carboxamide]
26 | 0.5 to 1 µM | CSc1nnc(NC(=O)c2cc(-c3nccc4ccccc34)no2)s1 [Compound 150, 3-(Isoquinolin-1-yl)-N-(5-(methylthio)-1,3,4-thiadiazol-2-yl)isoxazole-5-carboxamide]
27 | 0.1 to 0.5 µM | CSc1nnc(NC(=O)c2nnc(N3CCC(C(=O)O)C3)o2)s1 (stereo not drawn) [Compound 112, 1-(5-{[5-(methylsulfanyl)-1,3,4-thiadiazol-2-yl]carbamoyl}-1,3,4-oxadiazol-2-yl)pyrrolidine-3-carboxylic acid]
28 | 0.1 to 0.5 µM | CSc1nnc(NC(=O)c2cc(-c3cccc4c(C)ccnc34)cc(=O)o2)s1 [Compound 267, 4-(4-methylquinolin-8-yl)-N-(5-(methylthio)-1,3,4-thiadiazol-2-yl)-2-oxo-2H-pyran-6-carboxamide]
29 | 0.5 to 1 µM | CSc1nnc(NC(=O)c2cc(-c3cccc(F)c3)no2)s1 [Compound 211, 3-(3-fluorophenyl)-N-[5-(methylsulfanyl)-1,3,4-thiadiazol-2-yl]-1,2-oxazole-5-carboxamide]
30 | 0.5 to 1 µM | CSc1nnc(NC(=O)c2cncc(-c3cccs3)c2)s1 [Compound 96, N-(5-(methylthio)-1,3,4-thiadiazol-2-yl)-5-(thiophen-2-yl)-nicotinamide]
31 | 0.5 to 1 µM | CCc1nnc(NC(=O)c2onc3ccccc23)s1 [Compound 69, N-(5-ethyl-1,3,4-thiadiazol-2-yl)benzo[c]isoxazole-3-carboxamide]
32 | 0.5 to 1 µM | CSc1nnc(NC(=O)c2nnc(-c3ccccc3)o2)s1 [Compound 235, N-[5-(methylsulfanyl)-1,3,4-thiadiazol-2-yl]-5-phenyl-1,3,4-oxadiazole-2-carboxamide]
33 | 0.5 to 1 µM | CSc1nnc(NC(=O)c2cc(Oc3ccccc3)cc(=O)o2)s1 [Compound 202, N-(5-(methylthio)-1,3,4-thiadiazol-2-yl)-2-oxo-4-phenoxy-2H-pyran-6-carboxamide]
34 | < 0.1 µM | Nc1cc(C(=O)Nc2nnc(-c3ccccc3Cl)s2)on1 [Compound 4, 3-amino-N-(5-(2-chlorophenyl)-1,3,4-thiadiazol-2-yl)isoxazole-5-carboxamide]
35 | 0.1 to 0.5 µM | CSc1nnc(NC(=O)c2cc(C3CCCCC3)no2)s1 [Compound 84, 3-cyclohexyl-N-(5-(methylthio)-1,3,4-thiadiazol-2-yl)isoxazole-5-carboxamide]
36 | 0.1 to 0.5 µM | N#Cc1nnc(NC(=O)c2onc3c2ccc2cccnc23)s1 [Compound 9, N-(5-cyano-1,3,4-thiadiazol-2-yl)isoxazolo[4,3-h]quinoline-3-carboxamide]
37 | 0.1 to 0.5 µM | CSc1nnc(NC(=O)c2cc(-c3ccccc3C)cc(=O)o2)s1 [Compound 248]
38 | 0.1 to 0.5 µM | CC(C)c1cc(C(=O)Nc2nnc(-c3ccccc3Cl)s2)on1 [Compound 40, N-(5-(2-chlorophenyl)-1,3,4-thiadiazol-2-yl)-3-isopropylisoxazole-5-carboxamide]
39 | 0.1 to 0.5 µM | CSc1nnc(NC(=O)c2onc3c2ccc2cccnc23)s1 [Compound 94, N-(5-(methylthio)-1,3,4-thiadiazol-2-yl)isoxazolo[4,3-h]quinoline-3-carboxamide]
40 | 0.1 to 0.5 µM | CSc1nnc(NC(=O)c2cc(-c3cccc(Cl)c3)cc(=O)o2)s1 [Compound 240, 4-(3-chlorophenyl)-N-(5-methylsulfanyl-1,3,4-thiadiazol-2-yl)-6-oxo-pyran-2-carboxamide]
41 | 0.1 to 0.5 µM | CSc1nnc(NC(=O)c2nnc(N3CCC[C@@H]3c3ccccc3)o2)s1 [Compound 125, (R)-N-(5-(methylthio)-1,3,4-thiadiazol-2-yl)-5-(2-phenylpyrrolidin-1-yl)-1,3,4-oxadiazole-2-carboxamide]
42 | 0.1 to 0.5 µM | O=C(Nc1nnc(C(F)(F)F)s1)c1onc2c1ccc1cccnc12 [Compound 12, N-(5-(trifluoromethyl)-1,3,4-thiadiazol-2-yl)isoxazolo[4,3-h]quinoline-3-carboxamide]
